Assay results from patent US20220356174A1, “PYRIDIN-2-ONE COMPOUNDS USEFUL AS SMARCA2 ANTAGONISTS” (Epizyme, Inc., priority 2018, published 2022).
Read-outs that look alike come from different tables or passages of the source.

Key:
[1] = molecular target: T1, FL-SMARCA2 (full-length human SMARCA2 isoform 1) (Homo sapiens, UniProt P51531); test: SMARCA2 ATPase activity assay (ADP-Glo, chicken mononucleosome substrate); type: biochemical; settings: ATPase assay, enzyme 5 nM, ATP 250 uM, chicken mononucleosome 10 nM, 30 min preincubation
T1 construct: FLAG tag (YKDDDDK) (C); made in house; host or cells: Sf21 insect cells (baculovirus, pFastBacI)
T1 sequence (P51531 with tags, fused parts or gaps): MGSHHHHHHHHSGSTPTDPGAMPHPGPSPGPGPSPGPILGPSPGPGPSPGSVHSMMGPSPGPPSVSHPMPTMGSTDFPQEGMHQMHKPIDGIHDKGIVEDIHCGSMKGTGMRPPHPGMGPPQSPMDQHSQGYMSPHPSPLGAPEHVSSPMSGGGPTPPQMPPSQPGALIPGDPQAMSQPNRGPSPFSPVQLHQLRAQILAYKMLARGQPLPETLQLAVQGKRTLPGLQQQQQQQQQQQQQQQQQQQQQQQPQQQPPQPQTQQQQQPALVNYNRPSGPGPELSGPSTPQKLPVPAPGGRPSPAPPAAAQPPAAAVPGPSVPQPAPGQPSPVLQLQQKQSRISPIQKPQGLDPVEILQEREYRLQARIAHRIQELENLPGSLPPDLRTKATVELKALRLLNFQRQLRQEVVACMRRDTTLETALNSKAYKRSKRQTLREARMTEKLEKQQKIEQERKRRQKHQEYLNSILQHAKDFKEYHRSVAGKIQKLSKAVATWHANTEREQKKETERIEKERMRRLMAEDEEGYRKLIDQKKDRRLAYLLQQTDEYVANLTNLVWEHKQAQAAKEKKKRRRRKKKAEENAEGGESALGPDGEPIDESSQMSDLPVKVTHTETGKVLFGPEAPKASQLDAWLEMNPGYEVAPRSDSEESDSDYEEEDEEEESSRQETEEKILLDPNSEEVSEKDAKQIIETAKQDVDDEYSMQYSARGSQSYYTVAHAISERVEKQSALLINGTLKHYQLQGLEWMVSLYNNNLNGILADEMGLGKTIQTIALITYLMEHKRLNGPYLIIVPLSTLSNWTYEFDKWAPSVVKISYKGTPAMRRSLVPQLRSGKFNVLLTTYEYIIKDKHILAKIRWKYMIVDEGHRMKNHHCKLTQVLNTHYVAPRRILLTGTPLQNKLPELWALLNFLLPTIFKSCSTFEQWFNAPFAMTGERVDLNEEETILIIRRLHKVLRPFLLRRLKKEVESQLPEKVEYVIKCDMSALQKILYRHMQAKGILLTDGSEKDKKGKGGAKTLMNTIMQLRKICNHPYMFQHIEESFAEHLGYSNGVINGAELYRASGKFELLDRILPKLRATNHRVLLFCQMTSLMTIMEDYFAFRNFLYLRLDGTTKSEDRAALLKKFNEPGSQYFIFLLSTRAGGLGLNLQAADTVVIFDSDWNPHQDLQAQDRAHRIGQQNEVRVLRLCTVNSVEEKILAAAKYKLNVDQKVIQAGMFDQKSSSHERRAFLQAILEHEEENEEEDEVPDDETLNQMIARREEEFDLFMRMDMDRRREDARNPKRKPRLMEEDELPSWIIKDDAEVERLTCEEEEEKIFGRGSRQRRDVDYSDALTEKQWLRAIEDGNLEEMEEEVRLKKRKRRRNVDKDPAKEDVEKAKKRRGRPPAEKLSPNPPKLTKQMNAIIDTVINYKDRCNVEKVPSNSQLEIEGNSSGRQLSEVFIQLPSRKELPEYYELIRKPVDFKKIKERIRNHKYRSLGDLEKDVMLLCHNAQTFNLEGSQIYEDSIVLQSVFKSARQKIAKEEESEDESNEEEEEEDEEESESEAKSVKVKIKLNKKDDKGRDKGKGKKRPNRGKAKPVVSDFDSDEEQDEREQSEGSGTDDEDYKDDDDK

A549 cells = test: High-throughput proliferation (HTP) assay for A549 cells (CellTiter-Glo, 7 days); type: cell-based; settings: Homo sapiens, 168 h, read-out: A549 SMARCA2 IC50
Protocol: Thawing vials: A549 cells (ATCC #CCL-185™) were thawed from a cryovial containing approximately 1.6×10^6 cells frozen in 70% F12K medium, 20% HI-FBS and 10% DMSO. Cells were thawed by submerging the bottom half of the vial in a 37° C. water bath and gently flicked until almost thawed. The cells were transferred into a 15 mL conical tube containing 9 mL of F12K medium+10% HI-FBS and then centrifuged at 200×g for 4 min before drawing off the media without disturbing the cell pellet in order to remove the DMSO. The cells were resuspended again in 15 mL of F12K fresh complete media+10% HI-FBS and grown up in a T75 flask at 37° C. with 5% CO2 Incubator. Viability was measured to obtain baseline.
Frozen stock vials preparation: The cell culture was transferred to a 50 mL conical tube, spun down to remove medium, and resuspended at 1-2×10^6 cells/mL in complete medium containing 10% DMSO. The culture was then stored for 24 hours at −80 degree C., (with the initial rate of freezing is −1 degree C. per minute in a freezing container), then transferred and stored in liquid nitrogen.
(§1) Routine subculture: Sub-confluent cultures (70-80%) were split every 4 days, seeding out at 1-2×10^6 cells/75 cm^2.
Day 0: Assay ready plates were prepared by dispensing 50 nL of compound or DMSO in the appropriate wells of 384-well white CulturPlates using Echo550. Using the Multiflo, A549 cells were plated at 50 μL/well in F12K complete media+10% HI-FBS+1% pen/strep at cell density determined [1,250 cells/mL (62.5 cells/well)] from growth curve.
Treated cells were incubated at 37° C., 5% CO2, relative humidity >90% for 7 days. CellTiter-Glo (CTG) ATP detection reagent was prepared according to manufacturer's specifications. Cell assay plates were removed from the incubator and brought to room temperature (RT). Using the MultiDrop liquid handler, 30 μL of CTG were added per well. Plates were placed on the multidrop dispenser shake for 5 seconds at room temperature (RT). Plates were incubated for 30 minutes in the dark at RT before measuring luminescence using the Envison2104.
Data analysis: Using the DMSO control wells as the 0% inhibition (high signal) control and the 10 μM Doxorubicin control wells as the 100% inhibition (low signal) control, percent inhibition EC50s (inflection point) and IC50 s were calculated for the compound dose responses.

H358 cells = test: High-throughput proliferation (HTP) assay for H358 cells (CellTiter-Glo, 7 days); type: cell-based; settings: Homo sapiens, NCI-H358, 168 h, read-out: H358 SMARCA2 IC50
Protocol: Thawing vials: H358 cells (ATCC #CRL-5807™) were thawed from a cryovial containing approximately 1.6×10^6 cells frozen in 70% RPMI 1640 medium, 20% HI-FBS and 10% DMSO. Cells were thawed by submerging the bottom half of the vial in a 37° C. water bath and gently flicked until almost thawed. The cells were removed and transferred into a 15 mL conical tube containing 9 mL RPMI 1640 medium+10% HI-FBS and then centrifuged 200×g for 4 min before drawing off the media without disturbing the cell pellet to remove the DMSO. The cells were resuspended again in 15 mL of RPMI 1640 fresh complete media+10% HI-FBS and grown up in a T75 flask at 37° C. with 5% CO2 Incubator. Viability was measured to obtain baseline.
Preparing frozen stock vials: Cell density was counted in a stock flask. The culture was transferred to a 50 mL conical tube and spun down to remove medium, and then resuspend at 1-2×10^6 cells/mL in complete medium containing 10% DMSO and transferred to a 1 mL per vial.
as §1
Day 0: Assay ready plates were prepared by dispensing 50 nL of compound stock or DMSO in the appropriate wells of 384-well white CulturPlates using Echo550. Using the Multiflo, H358 cells at 50 μL/well were plated in RPMI 1640 complete media+10% HI-FBS+1% pen/strep at cell density determined [20,000 cells/mL (1,000 cells/well)] from growth curve. Treated cells were inclubated at 37° C., 5% CO2, relative humidity >90% for 7 days. CellTiter-Glo (CTG) ATP detection reagent was prepared according to manufacturer's specifications. Cell assay plates were removed from incubator and bring to room temperature (RT).
Using the MultiDrop liquid handler, 30 μL of CTG were added per well. Plates were placed on the multidrop dispenser shake for 5 seconds at RT. Plates were incubated for 30 minutes in the dark at RT before measuring luminescence using the Envison2104.
Data analysis: Using the DMSO control wells as the 0% inhibition (high signal) control and the 10 uM Doxorubicin control wells as the 100% inhibition (low signal) control, percent inhibition EC50s (inflection point) and IC50s were calculated for the compound dose responses.

FL-SMARCA4 = FL-SMARCA4 (Homo sapiens, UniProt P51532); test: SMARCA4 ATPase activity assay (ADP-Glo, chicken mononucleosome substrate)
Sequence of FL-SMARCA4 (P51532 whole entry): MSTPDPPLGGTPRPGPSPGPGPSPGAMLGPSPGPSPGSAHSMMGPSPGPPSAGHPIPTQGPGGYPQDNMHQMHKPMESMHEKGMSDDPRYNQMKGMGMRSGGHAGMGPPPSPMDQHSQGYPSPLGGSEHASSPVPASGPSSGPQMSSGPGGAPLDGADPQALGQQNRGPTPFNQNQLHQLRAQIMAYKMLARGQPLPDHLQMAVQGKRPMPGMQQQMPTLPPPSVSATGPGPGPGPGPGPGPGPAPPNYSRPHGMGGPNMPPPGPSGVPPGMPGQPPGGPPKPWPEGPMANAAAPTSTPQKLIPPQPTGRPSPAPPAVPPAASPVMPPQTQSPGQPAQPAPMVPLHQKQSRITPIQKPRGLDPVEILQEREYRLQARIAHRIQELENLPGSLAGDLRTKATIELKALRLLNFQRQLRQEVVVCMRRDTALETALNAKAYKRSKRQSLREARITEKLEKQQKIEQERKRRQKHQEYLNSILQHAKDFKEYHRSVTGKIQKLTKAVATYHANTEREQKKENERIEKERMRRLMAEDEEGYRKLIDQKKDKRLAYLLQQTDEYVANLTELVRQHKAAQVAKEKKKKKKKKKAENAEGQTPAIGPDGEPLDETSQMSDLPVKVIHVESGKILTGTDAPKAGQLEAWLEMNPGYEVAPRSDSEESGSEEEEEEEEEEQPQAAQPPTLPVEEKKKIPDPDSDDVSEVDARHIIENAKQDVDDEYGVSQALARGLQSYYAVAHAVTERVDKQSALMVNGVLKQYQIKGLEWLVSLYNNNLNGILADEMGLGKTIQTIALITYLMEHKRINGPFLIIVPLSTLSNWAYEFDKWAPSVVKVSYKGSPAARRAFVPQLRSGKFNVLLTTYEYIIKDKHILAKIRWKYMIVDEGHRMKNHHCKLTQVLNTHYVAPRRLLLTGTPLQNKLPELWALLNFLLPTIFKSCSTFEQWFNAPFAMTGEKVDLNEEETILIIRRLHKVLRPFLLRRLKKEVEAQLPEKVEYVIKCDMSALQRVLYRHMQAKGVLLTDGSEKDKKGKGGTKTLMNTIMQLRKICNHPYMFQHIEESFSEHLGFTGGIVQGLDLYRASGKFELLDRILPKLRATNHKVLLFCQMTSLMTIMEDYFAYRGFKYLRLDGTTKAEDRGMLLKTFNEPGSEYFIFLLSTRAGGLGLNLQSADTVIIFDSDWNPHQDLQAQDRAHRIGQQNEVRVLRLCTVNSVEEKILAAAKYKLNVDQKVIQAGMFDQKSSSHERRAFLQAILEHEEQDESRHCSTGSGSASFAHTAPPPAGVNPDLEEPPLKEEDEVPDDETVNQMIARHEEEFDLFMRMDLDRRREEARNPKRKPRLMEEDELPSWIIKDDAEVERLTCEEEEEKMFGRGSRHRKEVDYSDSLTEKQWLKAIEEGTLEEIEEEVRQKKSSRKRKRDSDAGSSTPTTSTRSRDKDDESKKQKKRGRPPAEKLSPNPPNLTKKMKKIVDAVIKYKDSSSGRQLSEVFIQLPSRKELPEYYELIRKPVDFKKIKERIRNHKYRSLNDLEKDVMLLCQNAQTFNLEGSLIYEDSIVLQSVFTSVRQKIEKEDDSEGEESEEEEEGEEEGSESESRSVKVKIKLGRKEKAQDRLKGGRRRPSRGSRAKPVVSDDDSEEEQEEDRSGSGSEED

[2] = Table 3d.1, read-out: FL-SMARCA2 IC>50
[3] = FL-SMARCA4 IC>50, Table 3c.2, ATPase assay, enzyme 5 nM, ATP 250 uM, chicken mononucleosome 10 nM, 30 min preincubation

For CNC(=O)c1cc(C#Cc2cc(C(=O)Nc3cc(F)c(=O)n(CC(F)F)c3)sc2Cl)on1 [Compound 55d], the IC50 [1, 2] was 0.0926 µM, the IC50 (A549 cells) was > 10 µM and the IC50 (H358 cells) was > 10 µM. The IC50 (FL-SMARCA4; FL-SMARCA4 IC50) was 0.246 µM.

In the case of O=C(Nc1cc(F)c(=O)n(CC(F)F)c1)c1cc(C#Cc2cccc(Cl)c2)c(Cl)s1 [Compound 56c], the IC50 ([1]; Table 3c.1) is reported as 0.297 µM, the IC50 (A549 cells) is reported as 4.4 µM and the IC50 (H358 cells) is reported as 9.02 µM. The IC50 (FL-SMARCA4; [3]) was 1.04 µM.

N#Cc1cc(C(=O)Nc2cc(C#N)c(=O)n(CC(F)F)c2)sc1C(F)(F)F [Compound 56d] was tested, and the IC50 [1, 2] was 0.0984 µM, the IC50 (A549 cells) was 6.25 µM and the IC50 (H358 cells) was > 10 µM. The IC50 (FL-SMARCA4; FL-SMARCA4 IC50) was 0.535 µM.

NC(=O)c1cccc(C#Cc2cc(C(=O)Nc3cc(F)c(=O)n(CC(F)F)c3)sc2Cl)c1 [Compound 57c] was tested, and the IC50 ([1]; Table 3c.1) was 0.0209 µM, the IC50 (A549 cells) was 3.61 µM and the IC50 (H358 cells) was > 10 µM. It also gave an IC50 (FL-SMARCA4; [3]) of 0.0999 µM.

With CC(=O)NC1COCC(C#Cc2cc(C(=O)Nc3cc(F)c(=O)n(CC(F)F)c3)sc2Cl)C1 (centres unmarked) [Compound 57d] the IC50 [1, 2] was 0.0516 µM, the IC50 (A549 cells) was > 10 µM and the IC50 (H358 cells) was > 10 µM. The IC50 (FL-SMARCA4; FL-SMARCA4 IC50) was 0.191 µM.

O=C(Nc1cc(F)c(=O)n(CC(F)F)c1)c1cc(C#CC2CCOC2)c(Cl)s1 (centres unmarked) [Compound 58c] was tested, and the IC50 ([1]; Table 3c.1) was 0.0447 µM, the IC50 (A549 cells) was 1.5 µM and the IC50 (H358 cells) was > 10 µM. For the same compound, the IC50 (FL-SMARCA4; [3]) was 0.178 µM.

In the case of O=C1Cc2ncc(C#Cc3cc(C(=O)NC4=NC(CC(F)F)C(=O)C(F)=C4)sc3Cl)cc2N1 (centres unmarked) [Compound 58d], the IC50 [1, 2] is reported as 0.0619 µM, the IC50 (A549 cells) is reported as > 10 µM and the IC50 (H358 cells) is reported as > 10 µM. It also gave an IC50 (FL-SMARCA4; FL-SMARCA4 IC50) of 0.102 µM.

Compound O=C(Nc1cc(F)c(=O)n(CC(F)F)c1)c1cc(C#Cc2ccncn2)c(Cl)s1 [Compound 59c] has an IC50 ([1]; Table 3c.1) of 0.132 µM, an IC50 (A549 cells) of 1.19 µM and an IC50 (H358 cells) of 2.03 µM. For the same compound, the IC50 (FL-SMARCA4; [3]) was 0.379 µM.

For Cn1cnc(C#Cc2cc(C(=O)Nc3cc(F)c(=O)n(CC(F)F)c3)sc2Cl)c1 [Compound 60c], the IC50 ([1]; Table 3c.1) was 0.251 µM, the IC50 (A549 cells) was > 10 µM and the IC50 (H358 cells) was > 10 µM. It also gave an IC50 (FL-SMARCA4; [3]) of 0.492 µM.

Cn1cc(C#Cc2cc(C(=O)Nc3cc(F)c(=O)n(CC(F)F)c3)sc2Cl)ccc1=O [Compound 60d] was tested, and the IC50 [1, 2] was 0.018 µM, the IC50 (A549 cells) was 3.65 µM and the IC50 (H358 cells) was > 10 µM. It also gave an IC50 (FL-SMARCA4; FL-SMARCA4 IC50) of 0.0363 µM.

In the case of Cc1nc(C#Cc2cc(C(=O)Nc3cc(F)c(=O)n(CC(F)F)c3)sc2Cl)cs1 [Compound 61c], the IC50 ([1]; Table 3c.1) is reported as 0.0267 µM, the IC50 (A549 cells) is reported as 1.51 µM and the IC50 (H358 cells) is reported as > 10 µM. For the same compound, the IC50 (FL-SMARCA4; [3]) was 0.0867 µM.

For COc1cncc(C#Cc2cc(C(=O)Nc3cc(F)c(=O)n(CC(F)F)c3)sc2Cl)c1 [Compound 61d], the IC50 [1, 2] was 0.197 µM, the IC50 (A549 cells) was 4.33 µM and the IC50 (H358 cells) was > 10 µM. For the same compound, the IC50 (FL-SMARCA4; FL-SMARCA4 IC50) was 0.655 µM.

O=C(Nc1cc(Cl)c(=O)n(CC(F)F)c1)c1cc(Cl)c(C(F)(F)F)s1 [Compound 79d] was tested, and the IC50 [1, 2] was 0.0432 µM, the IC50 (A549 cells) was 3.65 µM and the IC50 (H358 cells) was > 10 µM.

In the case of Cc1nnc(C#Cc2cc(C(=O)Nc3cc(F)c(=O)n(CC(F)F)c3)sc2Cl)[nH]1 [Compound 127c], the IC50 ([1]; Table 3c.1) is reported as 0.352 µM, the IC50 (A549 cells) is reported as > 10 µM and the IC50 (H358 cells) is reported as > 10 µM.

O=C(Nc1cc(F)c(=O)n(CC(F)F)c1)c1cc(C#Cc2ccnc(-c3ncco3)c2)c(Cl)s1 [Compound 150c] was tested, and the IC50 (A549 cells) was 0.932 µM, the IC50 (H358 cells) was > 10 µM and the IC50 (FL-SMARCA4; [3]) was 0.0145 µM.

Cn1cncc1C#Cc1cc(C(=O)Nc2cc(F)c(=O)n(CC(F)F)c2)sc1Cl [Compound 330] was tested, and the IC50 (A549 cells) was > 10 µM and the IC50 (H358 cells) was 8.74 µM.
